This note sets out measurements from patent US20240124432A1, “HERBICIDAL COMPOUNDS” (SYNGENTA CROP PROTECTION AG, priority 2020, published 2024).

What all share (format): in vivo
One assay relates to CHEAL. The assay is described as follows: Post-emergence biological efficacy. To be noted: Chenopodium album, 312 h, evaluated after 13 days, read-out: damage to plant (100=total damage to plant; 0=no damage to plant). The method in brief:
(§1)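 Damage was rated 13 days after treatment, from 0 (none) to 100 (total). Test compounds, formulated in IF50 and diluted with 0.2% Genapol XO80 to final dose, were sprayed on glasshouse plants raised for 14 days from seed.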

Assay [1] has as its system SETFA. Nature of the assay: Post-emergence biological efficacy. To be noted: Setaria faberi, 312 h, evaluated after 13 days, read-out: damage to plant (100=total damage to plant; 0=no damage to plant). The method in brief: as §1
The subject of assay [2] is AMAPA. Nature of the assay: Post-emergence biological efficacy. To be noted: Amaranthus palmeri, 312 h, evaluated after 13 days, read-out: damage to plant (100=total damage to plant; 0=no damage to plant). A digest of the protocol: as §1
For assay [3], the system named is EPHHL. The assay is described as follows: Post-emergence biological efficacy. To be noted: Euphorbia heterophylla, 312 h, evaluated after 13 days, read-out: damage to plant (100=total damage to plant; 0=no damage to plant). The method in brief: as §1
For assay [4], the system named is IPOHE. The assay is described as follows: Post-emergence biological efficacy. Particulars: Ipomoea hederacea, 312 h, evaluated after 13 days, read-out: damage to plant (100=total damage to plant; 0=no damage to plant). A digest of the protocol: as §1
The subject of assay [5] is ECHCG. Nature of the assay: Post-emergence biological efficacy. To be noted: Echinochloa crus-galli, 312 h, evaluated after 13 days, read-out: damage to plant (100=total damage to plant; 0=no damage to plant). A digest of the protocol:
as §1

The test system of assay [6] is LOLPE. The assay is described as follows: Post-emergence biological efficacy. To be noted: Lolium perenne, 312 h, evaluated after 13 days, read-out: damage to plant (100=total damage to plant; 0=no damage to plant). The method in brief:
as §1

The next assay relates to ELEIN. Nature of the assay: Post-emergence biological efficacy. To be noted: 312 h, evaluated after 13 days, read-out: damage to plant (100=total damage to plant; 0=no damage to plant). A digest of the protocol:
as §1

A further assay relates to DIGSA. The assay is described as follows: Post-emergence biological efficacy. Particulars: Digitaria sanguinalis, 312 h, evaluated after 13 days, read-out: damage to plant (100=total damage to plant; 0=no damage to plant). A digest of the protocol:
as §1

Assay [7] has as its system SETFA. Nature of the assay: Pre-emergence biological efficacy. To be noted: Setaria faberi, 312 h, evaluated after 13 days, read-out: damage to plant (100=total damage to plant; 0=no damage to plant). A digest of the protocol: (§2)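 Pre-emergence spray applied one day after sowing in standard soil, compound delivered from an IF50-based emulsifiable formulation diluted in 0.2% Genapol XO80. Plants then grew under glasshouse conditions for 13 days before damage was rated on a 0 (none) to 100 (total) scale.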

Assay [8] concerns AMAPA. The assay is described as follows: Pre-emergence biological efficacy. Particulars: Amaranthus palmeri, 312 h, evaluated after 13 days, read-out: damage to plant (100=total damage to plant; 0=no damage to plant). A digest of the protocol:
as §2

For assay [9], the system named is EPHHL. The assay is described as follows: Pre-emergence biological efficacy. To be noted: Euphorbia heterophylla, 312 h, evaluated after 13 days, read-out: damage to plant (100=total damage to plant; 0=no damage to plant). A digest of the protocol: as §2
Assay [10] relates to IPOHE. The assay is described as follows: Pre-emergence biological efficacy. Particulars: Ipomoea hederacea, 312 h, evaluated after 13 days, read-out: damage to plant (100=total damage to plant; 0=no damage to plant). The method in brief:
as §2

The test system of assay [11] is ECHCG. Nature of the assay: Pre-emergence biological efficacy. Particulars: Echinochloa crus-galli, 312 h, evaluated after 13 days, read-out: damage to plant (100=total damage to plant; 0=no damage to plant). The method in brief: as §2
Assay [12] relates to LOLPE. The assay is described as follows: Pre-emergence biological efficacy. To be noted: Lolium perenne, 312 h, evaluated after 13 days, read-out: damage to plant (100=total damage to plant; 0=no damage to plant). The method in brief: as §2

`CCOC(=O)C1(C)CC(c2cc(-c3cc(C(F)(F)F)cc(Cl)n3)c(F)cc2Cl)=NO1` (stereo not drawn) [Compound 1-67, Ethyl 3-[2-chloro-5-[6-chloro-4-(trifluoromethyl)-2-pyridyl]-4-fluoro-phenyl]-5-methyl-4H-isoxazole-5-carboxylate]: the pest or weed control at 250 g/ha with CHEAL came out at 10%; in the assay with SETFA [1], 20%; with AMAPA [2], 20%; with EPHHL [3], 40%; in the assay with IPOHE [4], 30%; with ECHCG [5], 0%. Besides, the pest or weed control at 250 g/ha with LOLPE [6] amounted to 0%; in the assay on ELEIN, 0%; in the assay with DIGSA, 10%; in the assay with SETFA [7] it was 0%; with AMAPA [8], 10%; in the assay with EPHHL [9], 0%. The pest or weed control at 250 g/ha with IPOHE [10], with ECHCG [11] and in the assay on LOLPE [12] was 0% throughout.

As to `CCOC(=O)C1(C)CC(c2cc(-c3ncc(Cl)cc3C(F)(F)F)c(F)cc2Cl)=NO1` (stereo not drawn) [Compound 1-343, Ethyl 3-[2-chloro-5-[5-chloro-3-(trifluoromethyl)-2-pyridyl]-4-fluoro-phenyl]-5-methyl-4H-isoxazole-5-carboxylate], the pest or weed control at 250 g/ha with CHEAL was determined as 100%; in the assay on SETFA [1], 100%; in the assay with AMAPA [2] it was 100%; in the assay on EPHHL [3], 100%; in the assay on IPOHE [4] it was 100%; in the assay with ECHCG [5] it was 80%. For the same compound, the pest or weed control at 250 g/ha in the assay on LOLPE [6] was 60%; in the assay with ELEIN it was 100%; with DIGSA, 100%; with SETFA [7], 50%; in the assay on AMAPA [8] it was 70%; with EPHHL [9], 50%. Also, the values for the pest or weed control at 250 g/ha in the assay on IPOHE [10], in the assay on ECHCG [11] and in the assay on LOLPE [12] were 60%, 30% and 20%, respectively.

For the compound `CC1(C(=O)O)CC(c2cc(-c3ncc(C(F)(F)F)cc3Cl)c(F)cc2Cl)=NO1` (stereo not drawn) [Compound 1-101, 3-[2-chloro-5-(3-chloro-5-trifluoromethyl-2-pyridyl)-4-fluoro-phenyl]-5-methyl-4H-isoxazole-5-carboxylic acid], the pest or weed control at 250 g/ha in the assay on CHEAL, in the assay on SETFA [1], in the assay on AMAPA [2], in the assay with EPHHL [3], with IPOHE [4] and with ECHCG [5] was 100% in each case. Besides, the pest or weed control at 250 g/ha in the assay on LOLPE [6], in the assay on ELEIN, with DIGSA, with SETFA [7], with AMAPA [8] and with EPHHL [9] was 100% throughout. The results for the pest or weed control at 250 g/ha in the assay on IPOHE [10], in the assay on ECHCG [11] and with LOLPE [12] were 100%, 100% and 80%, respectively.

On to `CCOC(=O)C1(C)CC(c2cc(-c3ccc(Cl)nn3)c(F)cc2Cl)=NO1` (stereo not drawn) [Compound 1-679, Ethyl 3-[2-chloro-5-(6-chloropyridazin-3-yl)-4-fluoro-phenyl]-5-methyl-4H-isoxazole-5-carboxylate], for which the pest or weed control at 250 g/ha amounted to 60% in the assay with CHEAL; 50% in the assay on SETFA [1]; 60% in the assay with AMAPA [2]; 50% in the assay on EPHHL [3]; 40% in the assay with IPOHE [4]; 50% in the assay with ECHCG [5]. Further, the pest or weed control at 250 g/ha amounted to 10% with LOLPE [6]; 60% with ELEIN; 50% in the assay on DIGSA; 0% in the assay on SETFA [7]; 0% in the assay on AMAPA [8]; 0% in the assay with EPHHL [9]. Moreover, the pest or weed control at 250 g/ha in the assay with IPOHE [10], with ECHCG [11] and in the assay with LOLPE [12] was 0% each time.
